Laboratory results as given in PubChem BioAssay AID248 (DTP/NCI, 2004).
Where “and” joins values, the source holds several entries; their conditions need not be identical. Identical values can stand only once. Toxic doses and inconclusive results are not listed. No stated cut-off is given here; in the data, active means T/C of 150% or more; inactive means T/C below 125%. Square brackets hold non-standard residues; d marks the D form. Peptide text beside a SMILES is read from it. * marks the point of attachment. ξ: configuration not given here. Tos = Cc1ccc(S(=O)(=O)*)cc1; ξS = NC(CO)C(=O)O

Test system: L1210 leukemia ip in BDF1 mice, survival T/C
Assay: NCI In Vivo Anticancer Drug Screen. Data for tumor model L1210 Leukemia (intraperitoneal) in B6D2F1 (BDF1) mice
Settings: endpoint: mean survival time, higher = longer survival
In short: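 Read-out is survival time, reported as the treated-group measurement over the vehicle-control measurement.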

[1] = dose: 75.0 mg/kg/injection, schedule: Q01DX001 (ip), vehicle: saline
[2] = dose: 150.0 mg/kg/injection, schedule: Q01DX001 (ip), vehicle: saline

Measured: T/C

CC1(c2cccc(N)c2)OCCO1
inactive: dose: 100.0 mg/kg/injection, schedule: Q01DX009 (ip), vehicle: saline with Tween-80 100 % of control | dose: 100.0 mg/kg/injection, schedule: Q04DX003 (ip), vehicle: saline with Tween-80 94 % of control | dose: 200.0 mg/kg/injection, schedule: Q01DX009 (ip), vehicle: saline with Tween-80 102 % of control | dose: 200.0 mg/kg/injection, schedule: Q04DX003 (ip), vehicle: saline with Tween-80 100 % of control | dose: 400.0 mg/kg/injection, schedule: Q01DX009 (ip), vehicle: saline with Tween-80 91 % of control | dose: 400.0 mg/kg/injection, schedule: Q04DX003 (ip), vehicle: saline with Tween-80 97 % of control

Cc1cc(C)c(CSC(=N)N)c(C)c1
inactive: dose: 25.0 mg/kg/injection, schedule: Q04DX002 (ip), vehicle: Klucel (hydroxypropylcellulose) (HPC) 88 % of control | dose: 50.0 mg/kg/injection, schedule: Q04DX002 (ip), vehicle: Klucel (hydroxypropylcellulose) (HPC) 92 % of control | dose: 100.0 mg/kg/injection, schedule: Q04DX002 (ip), vehicle: Klucel (hydroxypropylcellulose) (HPC) 100 % of control and 89 % of control

Cc1ccc(S(=O)(=O)NC(CO)C(=O)NCC(=O)O)cc1 (configuration not stated) (Tos-[ξS]-Gly-OH)
inactive: dose: 100.0 mg/kg/injection, schedule: Q01DX009 (ip), vehicle: saline 103 % of control | dose: 200.0 mg/kg/injection, schedule: Q01DX009 (ip), vehicle: saline 97 % of control | dose: 400.0 mg/kg/injection, schedule: Q01DX009 (ip), vehicle: saline 91 % of control

NC(C(=O)O)c1cc(Cl)co1 (configuration not stated)
inactive: dose: 100.0 mg/kg/injection, schedule: Q04DX003 (ip), vehicle: Klucel (hydroxypropylcellulose) (HPC) 105 % of control | dose: 200.0 mg/kg/injection, schedule: Q04DX003 (ip), vehicle: Klucel (hydroxypropylcellulose) (HPC) 105 % of control | dose: 400.0 mg/kg/injection, schedule: Q04DX003 (ip), vehicle: Klucel (hydroxypropylcellulose) (HPC) 101 % of control

CC(=O)OCC(C)c1ccccc1 (configuration not stated)
inactive: dose: 100.0 mg/kg/injection, schedule: Q04DX002 (ip), vehicle: saline 96 % of control | dose: 200.0 mg/kg/injection, schedule: Q04DX002 (ip), vehicle: saline 103 % of control | dose: 400.0 mg/kg/injection, schedule: Q04DX002 (ip), vehicle: saline 96 % of control

CCCCC(=O)NC1=C(Cl)C(=O)c2ccccc2C1=O
inactive: [1] 89 % of control | [2] 90 % of control

Nc1ccccc1SC1CC(=O)N(c2ccc(Br)cc2)C1=O (configuration not stated)
inactive: dose: 100.0 mg/kg/injection, schedule: Q04DX002 (ip), vehicle: gum acacia 95 % of control | dose: 200.0 mg/kg/injection, schedule: Q04DX002 (ip), vehicle: gum acacia 88 % of control | dose: 400.0 mg/kg/injection, schedule: Q04DX002 (ip), vehicle: gum acacia 95 % of control

CC1CCOC(=O)CCCCC1=O (configuration not stated)
inactive: dose: 100.0 mg/kg/injection, schedule: Q01DX001 (ip), vehicle: saline 101 % of control | dose: 200.0 mg/kg/injection, schedule: Q01DX001 (ip), vehicle: saline 90 % of control | dose: 400.0 mg/kg/injection, schedule: Q01DX001 (ip), vehicle: saline 109 % of control

C=CCN(CC=C)C(=S)[S-].C=CCN(CC=C)C(=S)[S-].[Zn]
inactive: dose: 1.25 mg/kg/injection, schedule: Q01DX009 (ip), vehicle: saline 101 % of control | dose: 2.5 mg/kg/injection, schedule: Q01DX009 (ip), vehicle: saline 93 % of control | dose: 5.0 mg/kg/injection, schedule: Q01DX009 (ip), vehicle: saline 87 % of control | dose: 5.0 mg/kg/injection, schedule: Q04DX003 (ip), vehicle: saline 90 % of control | dose: 10.0 mg/kg/injection, schedule: Q01DX001 (ip), vehicle: saline 86 % of control | dose: 10.0 mg/kg/injection, schedule: Q04DX003 (ip), vehicle: saline 92 % of control | dose: 20.0 mg/kg/injection, schedule: Q01DX001 (ip), vehicle: saline 95 % of control

O=C(O)C1CCC(C(=O)c2ccc([N+](=O)[O-])cc2)CC1 (configuration not stated)
inactive: dose: 100.0 mg/kg/injection, schedule: Q04DX003 (ip), vehicle: gum acacia 97 % of control | dose: 200.0 mg/kg/injection, schedule: Q04DX003 (ip), vehicle: gum acacia 93 % of control | dose: 400.0 mg/kg/injection, schedule: Q04DX003 (ip), vehicle: gum acacia 88 % of control

CC(COC(=O)c1ccc(N)cc1)NC1CCCC1 (configuration not stated)
inactive: [1] 97 % of control | [2] 105 % of control

C(CC1CCCC1)=C(CCC1CCCC1)CCC1CCCC1
inactive: dose: 50.0 mg/kg/injection, schedule: Q04DX002 (ip), vehicle: saline with Tween-80 103 % of control | dose: 100.0 mg/kg/injection, schedule: Q04DX002 (ip), vehicle: saline with Tween-80 92 % of control | dose: 200.0 mg/kg/injection, schedule: Q04DX002 (ip), vehicle: saline with Tween-80 95 % of control | dose: 400.0 mg/kg/injection, schedule: Q04DX002 (ip), vehicle: saline with Tween-80 92 % of control
